Laboratory results as given in patent US20080260896A1 (priority 2007, published 2008).
Where two headings read alike, the source gives them in different places. Marks after values point to notes of the source that are not given here.

Experiments:
[1] = Crude glycerin in finishing cattle diets: animal performance (weight, ADG, DMI, gain/feed); format: in vivo, Angus-cross steers; conditions: for Average Daily Gain / Dry Matter Intake / Gain/Feed, ×100 / Weight: 10% DM glycerin
Procedure: All cattle were adapted on a common 4-step transition prior to initiation of the evaluation. Cattle were blocked by weight (4 blocks) with four pens per treatment (9-10 head/pen). […] Individual weights were collected at 28-day intervals throughout with steers terminated on three harvest dates (days on feed 116 to 153 days) based on weight and condition. Six monthly periods and cumulative (d 1-116 and 1-153) periods were analyzed.

[2] = male, crossbred, cattle, in vivo
Text: A subset of ten cattle (5 from each treatment) were used for baseline and withdrawal sampling of rumen fluid and blood plasma for residual methanol quantification. […] Withdrawal samples were collected from the same subset of animals.

[3] = Lactating Holstein cows fed heat stress product with and without glycerin; format: in vivo; conditions: heat stress product + 454 g/d glycerin
Text: Forty-eight lactating Holstein cows (twelve per treatment) were used in a randomized complete block design to determine the effect of feed additives on production efficiency. […] Treatments 2 and 4 will be the focus of this example. Diets were corn silage based and formulated to be iso-nitrogenous. Cows were housed in a free-stall barn with access to individual stalls. Training for Calan door use was initiated in mid-May, the standardization period occurred in early June and the treatment period started in late June and continued through early August. Feed was mixed and delivered once daily and fed behind electronic Calan doors, allowing individual intake to be determined. Ad libitum intakes were adjusted to achieve orts of 7-10% daily. Cows were milked twice daily at 0400 and 1500. Feed intake, milk yield and composition, body temperature, and body weight changes were monitored.

[4] = Day 1-28, DDGS:Soy Hulls 10:0 diet (Treatment 2)
[5] = Day 1-28, DDGS:Soy Hulls 30:15 diet (Treatment 4)
[6] = Day 1-28, main effect over both diets
[7] = Day 1-116, DDGS:Soy Hulls 10:0 diet (Treatment 2)
[8] = Day 1-116, DDGS:Soy Hulls 30:15 diet (Treatment 4)
[9] = Day 1-116, main effect over both diets
[10] = Day 1-153, DDGS:Soy Hulls 10:0 diet (Treatment 2)
[11] = Day 1-153, DDGS:Soy Hulls 30:15 diet (Treatment 4)
[12] = Day 1-153, main effect over both diets
[13] = Day 29-56, DDGS:Soy Hulls 10:0 diet (Treatment 2)
[14] = Day 29-56, DDGS:Soy Hulls 30:15 diet (Treatment 4)
[15] = Day 29-56, main effect over both diets
[16] = Day 57-84, DDGS:Soy Hulls 10:0 diet (Treatment 2)
[17] = Day 57-84, DDGS:Soy Hulls 30:15 diet (Treatment 4)
[18] = Day 57-84, main effect over both diets
[19] = Day 85-116, DDGS:Soy Hulls 10:0 diet (Treatment 2)
[20] = Day 85-116, DDGS:Soy Hulls 30:15 diet (Treatment 4)
[21] = Day 85-116, main effect over both diets
[22] = Day 117-132, DDGS:Soy Hulls 10:0 diet (Treatment 2)
[23] = Day 117-132, DDGS:Soy Hulls 30:15 diet (Treatment 4)
[24] = Day 117-132, main effect over both diets
[25] = Day 133-153, DDGS:Soy Hulls 10:0 diet (Treatment 2)
[26] = Day 133-153, DDGS:Soy Hulls 30:15 diet (Treatment 4)
[27] = Day 133-153, main effect over both diets
[28] = high co-product diets with glycerin

SMILES: OCC(O)CO [crude glycerin, glycerin]
- Average Daily Gain [1, 4]: 1.46^a kg/hd/d
- Dry Matter Intake [1, 4]: 7.97^c kg/hd/d
- Gain/Feed, ×100 [1, 4]: 18.27^a
- Average Daily Gain [1, 5]: 1.31^ab kg/hd/d
- Dry Matter Intake [1, 5]: 8.34^bc kg/hd/d
- Gain/Feed, ×100 [1, 5]: 15.64^b
- Average Daily Gain [1, 6]: 1.38 kg/hd/d
- Dry Matter Intake [1, 6]: 8.16 kg/hd/d
- Gain/Feed, ×100 [1, 6]: 16.96
- Average Daily Gain [1, 7]: 1.30 kg/hd/d
- Dry Matter Intake [1, 7]: 8.31^c kg/hd/d
- Gain/Feed, ×100 [1, 7]: 15.66^a
- Average Daily Gain [1, 8]: 1.27 kg/hd/d
- Dry Matter Intake [1, 8]: 8.95^b kg/hd/d
- Gain/Feed, ×100 [1, 8]: 14.28^b
- Average Daily Gain [1, 9]: 1.29 kg/hd/d
- Dry Matter Intake [1, 9]: 8.63 kg/hd/d
- Gain/Feed, ×100 [1, 9]: 14.97
- Average Daily Gain [1, 10]: 1.27^a kg/hd/d
- Dry Matter Intake [1, 10]: 8.37^c kg/hd/d
- Gain/Feed, ×100 [1, 10]: 15.21^a
- Average Daily Gain [1, 11]: 1.21^ab kg/hd/d
- Dry Matter Intake [1, 11]: 8.99^b kg/hd/d
- Gain/Feed, ×100 [1, 11]: 13.43^b
- Average Daily Gain [1, 12]: 1.24 kg/hd/d
- Dry Matter Intake [1, 12]: 8.68 kg/hd/d
- Gain/Feed, ×100 [1, 12]: 14.32
- Weight ([1]; Day 28, DDGS:Soy Hulls 10:0 diet (Treatment 2)): 428.2^a kg
- Weight ([1]; Day 28, DDGS:Soy Hulls 30:15 diet (Treatment 4)): 423.9^ab kg
- Weight ([1]; Day 28, main effect over both diets): 426.1 kg
- Average Daily Gain [1, 13]: 1.53 kg/hd/d
- Dry Matter Intake [1, 13]: 8.78^c kg/hd/d
- Gain/Feed, ×100 [1, 13]: 17.43^a
- Average Daily Gain [1, 14]: 1.66 kg/hd/d
- Dry Matter Intake [1, 14]: 9.95^b kg/hd/d
- Gain/Feed, ×100 [1, 14]: 16.78^a
- Average Daily Gain [1, 15]: 1.60 kg/hd/d
- Dry Matter Intake [1, 15]: 9.36 kg/hd/d
- Gain/Feed, ×100 [1, 15]: 17.10
- Weight ([1]; Day 56, DDGS:Soy Hulls 10:0 diet (Treatment 2)): 471.2 kg
- Weight ([1]; Day 56, DDGS:Soy Hulls 30:15 diet (Treatment 4)): 470.5 kg
- Weight ([1]; Day 56, main effect over both diets): 470.9 kg
- Average Daily Gain [1, 16]: 1.29 kg/hd/d
- Dry Matter Intake [1, 16]: 8.84^b kg/hd/d
- Gain/Feed, ×100 [1, 16]: 14.64
- Average Daily Gain [1, 17]: 1.25 kg/hd/d
- Dry Matter Intake [1, 17]: 9.37^b kg/hd/d
- Gain/Feed, ×100 [1, 17]: 13.36
- Average Daily Gain [1, 18]: 1.27 kg/hd/d
- Dry Matter Intake [1, 18]: 9.11 kg/hd/d
- Gain/Feed, ×100 [1, 18]: 14.00
- Weight ([1]; Day 84, DDGS:Soy Hulls 10:0 diet (Treatment 2)): 507.3 kg
- Weight ([1]; Day 84, DDGS:Soy Hulls 30:15 diet (Treatment 4)): 505.4 kg
- Weight ([1]; Day 84, main effect over both diets): 506.4 kg
- Average Daily Gain [1, 19]: 0.97 kg/hd/d
- Dry Matter Intake [1, 19]: 7.74^c kg/hd/d
- Gain/Feed, ×100 [1, 19]: 12.47
- Average Daily Gain [1, 20]: 0.93 kg/hd/d
- Dry Matter Intake [1, 20]: 8.25^bc kg/hd/d
- Gain/Feed, ×100 [1, 20]: 11.22
- Average Daily Gain [1, 21]: 0.95 kg/hd/d
- Dry Matter Intake [1, 21]: 8.00 kg/hd/d
- Gain/Feed, ×100 [1, 21]: 11.84
- Weight ([1]; Day 116, DDGS:Soy Hulls 10:0 diet (Treatment 2)): 538.3 kg
- Weight ([1]; Day 116, DDGS:Soy Hulls 30:15 diet (Treatment 4)): 535.1 kg
- Weight ([1]; Day 116, main effect over both diets): 536.7 kg
- Average Daily Gain [1, 22]: 1.46 kg/hd/d
- Dry Matter Intake [1, 22]: 8.67^ab kg/hd/d
- Gain/Feed, ×100 [1, 22]: 17.25
- Average Daily Gain [1, 23]: 1.26 kg/hd/d
- Dry Matter Intake [1, 23]: 9.54^ab kg/hd/d
- Gain/Feed, ×100 [1, 23]: 12.86
- Average Daily Gain [1, 24]: 1.36 kg/hd/d
- Dry Matter Intake [1, 24]: 9.11 kg/hd/d
- Gain/Feed, ×100 [1, 24]: 15.06
- Weight ([1]; Day 132, DDGS:Soy Hulls 10:0 diet (Treatment 2)): 552.8 kg
- Weight ([1]; Day 132, DDGS:Soy Hulls 30:15 diet (Treatment 4)): 548.8 kg
- Weight ([1]; Day 132, main effect over both diets): 550.8 kg
- Average Daily Gain [1, 25]: 1.39^a kg/hd/d
- Dry Matter Intake [1, 25]: 8.48 kg/hd/d
- Gain/Feed, ×100 [1, 25]: 16.48^a
- Average Daily Gain [1, 26]: 0.90^b kg/hd/d
- Dry Matter Intake [1, 26]: 9.42 kg/hd/d
- Gain/Feed, ×100 [1, 26]: 9.35^b
- Average Daily Gain [1, 27]: 1.15 kg/hd/d
- Dry Matter Intake [1, 27]: 8.95 kg/hd/d
- Gain/Feed, ×100 [1, 27]: 12.92
- Weight ([1]; Day 153, DDGS:Soy Hulls 10:0 diet (Treatment 2)): 570.5 kg
- Weight ([1]; Day 153, DDGS:Soy Hulls 30:15 diet (Treatment 4)): 548.0 kg
- Weight ([1]; Day 153, main effect over both diets): 559.3 kg
- Cumulative ADG better [1, 28]: 2.5%
- cumulative DMI lower [1, 28]: 11.8%
- cumulative gain: feed better [1, 28]: 16.4%
- Cumulative ADG greater ([1]; high-grain diets with glycerin): 11.4%
- cumulative DMI lesser ([1]; high-grain diets with glycerin): 8.1%
- cumulative gain: feed greater ([1]; high-grain diets with glycerin): 21.9%
- Cumulative ADG ([1]; steers fed diets containing 10% crude glycerin (main effect)): 1.24 kg/day
- dry matter intake (DMI) ([1]; steers fed diets with added glycerin (main effect), cumulative): 8.68 kg/day
- animals with measurable methanol in rumen fluid [2]: 50%
- animals with measurable methanol in rumen fluid ([2]; 16 day): 100%
- methanol in rumen fluid ([2]; 16 day): ≤ 23.77 ppm
- NE Balance [3]: 6.15 mcal/day
- NE intake [3]: 38.74 mcal/day
- NE milk [3]: 27.07 mcal/day
- Body Weight change ([3]; 56 days): greater
- Milk fat ([3]; 56 days): 3.90%
- Milk fat, milk protein, and energy corrected milk yield ([3]; 56 days): tended greater
- Milk production ([3]; 56 days): not affected by treatment group
- Milk protein ([3]; 56 days): 2.93%
- Retained net energy for lactation and/or body weight gain ([3]; 56 days): significantly greater
- Milk ([3]; 56 days, all cows): 38.53 kg/day
- DMI ([3]; 56 days, listed as Glycerin): 23.49 kg/day
- DMI ([3]; 56 days, listed as glycerin): not different among treatment groups
- Milk, Multiparous ([3]; multiparous cows): 36.63 kg/day
- Milk, Primiparous ([3]; primiparous cows): 40.42 kg/day
- ECM (energy corrected milk) ([3]; (.3246 × kg milk) + (12.86 × kg fat) + (7.04 × kg protein)): 39.40 kg/day
- BW change ([3]; difference in body weights using a weekly rolling average): 0.779 kg/day
